System: MCF-7
Assay: Cell cycle analysis by flow cytometry (propidium iodide)
Format: cell-based, human
Conditions: MCF7 and U2OS with siRNA knockdown; data not shown

SMILES: O=c1[nH]cc(F)c(=O)[nH]1 [5-fluorouracil]
- cell cycle arrest response (control): potent p53-dependent cell cycle arrest response

Source: paper PMC4303209, “A novel phosphatidylinositol 3-kinase (PI3K) inhibitor directs a potent FOXO-dependent, p53-independent cell cycle arrest phenotype characterized by the differential induction of a subset of FOXO-regulated genes” (Breast Cancer Research : BCR, 2014)
